From patent US12459972B2, “Protease-activated contrast agents for in vivo imaging” (THE BOARD OF TRUSTEES OF THE LELAND STANFORD JUNIOR …, priority 2015, dated 2025)

Columns and labels:
[1] = tested on: 4T1 tumors (tumor associated cysteine cathepsins); assay: Non-invasive optical imaging with Cy5 substrates, syngeneic orthotopic 4T1 mouse model of breast cancer; format: in vivo; conditions: for Cy5 fluorescence in frozen tumor sections: 24-hour endpoint, histology; for overall absolute fluorescence intensity in the tumors compared to non-lysosomotropic substrates 2CQ and 6CQ: intravenous, non-invasive imaging
Protocol: In this model 4T1 cells are inoculated into the left number 1 and 10 mammary fat pad of mice to generate tumors. In order to determine the impact of the LLE, imaging signals of lysosomotropic probes 2QC (compound 5) and 6QC (compound 7) were directly compared to those of the non-lysosomotropic analogues 2CQ (compound 2) and 6CQ (compound 4). Substrates were administered to tumor-bearing mice intravenously, and mice were imaged at various time points following the administration. […] The intensity of the fluorescent signal reached a maximum at 4 hour after administration, followed by a decrease in the signal intensity (FIG. 4B). […] Furthermore, the intensity of the signal remained constant over a period of 24 hours in the tumors of mice administered with the LLE substrates, whereas the signals from the non-LLE substrates were almost completely cleared after 24 hours (FIGS. 4A and 4B). A similar trend was observed by ex vivo imaging of tumors excised from mice that had been euthanized after 4 hours and after 24 hours (FIG. 4C).
In order to determine which populations of cells are responsible for activating the quenched substrate probes in vivo, immunofluorescence staining on frozen sliced sections of tumors isolated from mice injected with each substrate was performed using a macrophage-selective marker CD68. The Cy5 signal of the substrate co-localized to only CD68-positive cells (macrophages), with no signals observed in the 4T1 tumor cell (FIG. 5A). Moreover, Cy5 fluorescence was only observed in tissues from mice that received nQC substrates and not in tissues from mice treated with nCQ substrates (FIG. 5B).

recombinant cathepsin V = recombinant cathepsin V (Homo sapiens, UniProt O60911); assay: Enzyme kinetics / turnover of quenched substrates with recombinant cathepsin V; format: biochemical; conditions: for Km / kcat: recombinant cathepsin V, 5 nM enzyme; for Km: 50 mM citrate buffer pH 5.5, 37° C., average of three replicates ± standard error; for kcat: citrate buffer pH 5.5, 37° C.; for increase in efficiency, spacer n=6 relative to n=2 analog: Cat V, nCQ and nQC series respectively
Protocol: (§1) The activity and selectivity of all 6 substrates were determined by monitoring the turnover curves of each internally quenched probe in the presence of various recombinant cysteine proteases, specifically cathepsins L, S, K, B, and V. Equal concentration (5 nM) of each enzyme was incubated with the different probes in 50 mM citrate buffer (pH=5.5, 5 mM DTT, 0.1% triton X, 0.5% CHAPS) at 37° C. The exact concentration of the various cathepsins used were confirmed by active site titration (Boucher et al. (2014) Methods Mol. Biol. 1133:3-39) using the covalent cysteine protease inhibitor ZFK-PMK and the commercial substrates Z-VVR-AMC for cathepsins S, L, B, and V, or Z-KR-AMC for cathepsin K. The rate of increase in Cy5 fluorescence (which is indicative of probe cleavage by cathepsins) was measured for each of the probes.

recombinant cathepsin L = recombinant cathepsin L (Homo sapiens, UniProt P07711); assay: Enzyme kinetics / turnover of quenched substrates with recombinant cathepsin L; format: biochemical; conditions: for Km / kcat: recombinant cathepsin L, 5 nM enzyme; for Km: 50 mM citrate buffer pH 5.5, 37° C., average of three replicates ± standard error; for kcat: citrate buffer pH 5.5, 37° C.; for increase in catalytic efficiency, spacer n=6 relative to n=2 analog: Cat L, 6CQ vs 2CQ, 6QC vs 2QC
Protocol: as §1

[2] = tested on: 4T1 tumors (tumor associated cysteine cathepsins); assay: Non-invasive imaging with NIR probes in 4T1 breast cancer model, IVIS-spectrum; format: in vivo, mouse; conditions: 24 hour time course
Excerpt: The optimized substrate probes described above have therefore been tested in a clinically relevant model systems of FGS. […] In these compounds, the Cy5 chromophore was strategically substituted with a similar molecular weight near infrared (NIR) DyLight 780-B1 fluorophore. The compound with a linker having n=6 was chosen based on the optimal turnover numbers by cathepsins in vitro. The QSY21-sulfo quencher was also substituted with IRDye QC-1, which is a dark NIR quencher (FIG. 6A). In addition to being detectable on the camera system of the da Vinci robot, the emission wavelength of the NIR dye (absorption/emission maxima of 783/799 nm) falls within a window with low overall background and will therefore enhance tissue penetration and improve signal to background ratio during imaging. Richards-Kortum and Sevick-Muraca (1996) Annu. Rev. Phys. Chem. 47:555-606. The NIR probes were first analyzed as contrast agents in the 4T1 breast cancer model described above, using the IVIS-spectrum imaging system. Following systemic administration of the contrast agents, mice were imaged non-invasively every hour for 4 hours, and then at 6, 8, 12 and 24 hours post injection of the substrate. […] The intensity of the fluorescence signal in the tumors increased rapidly in mice injected with both types of probes, and it eventually peaked between 4 to 6 hours. […]

Chain of recombinant cathepsin V (O60911 114-334): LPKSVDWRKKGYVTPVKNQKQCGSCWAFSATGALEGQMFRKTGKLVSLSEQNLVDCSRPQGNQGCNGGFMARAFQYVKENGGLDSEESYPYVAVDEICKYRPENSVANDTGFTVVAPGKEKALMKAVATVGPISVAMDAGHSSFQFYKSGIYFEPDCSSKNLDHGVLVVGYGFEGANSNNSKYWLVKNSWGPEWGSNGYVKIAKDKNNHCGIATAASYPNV
Chain of recombinant cathepsin L (P07711 114-333, species assumed): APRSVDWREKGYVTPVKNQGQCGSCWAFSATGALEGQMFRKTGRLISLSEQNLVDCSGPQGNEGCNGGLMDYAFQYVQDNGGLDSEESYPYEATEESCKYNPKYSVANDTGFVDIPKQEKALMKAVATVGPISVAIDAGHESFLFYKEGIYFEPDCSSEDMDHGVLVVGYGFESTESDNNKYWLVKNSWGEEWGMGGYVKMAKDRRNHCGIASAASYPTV

SMILES	Km (recombinant cathepsin V)	kcat (recombinant cathepsin V)	Km (recombinant cathepsin L)	kcat (recombinant cathepsin L)	increase in efficiency, spacer n=6 relative to n=2 analog (recombinant cathepsin V)	increase in catalytic efficiency, spacer n=6 relative to n=2 analog (recombinant cathepsin L)	Cy5 fluorescence in frozen tumor sections [1]	overall absolute fluorescence intensity in the tumors compared to non-lysosomotropic substrates 2CQ and 6CQ [1]	clearance rate and signal in tumors relative to the non-LLE substrate [2]
CC[N+]1=C(C=CC=CC=C2N(CCCCCC(=O)NCCNC(=O)[C@H](CCCCNC(=O)C3CCN(S(=O)(=O)c4ccccc4-c4c5ccc(=[N+]6CCc7cc(S(=O)(=O)O)ccc76)cc-5oc5cc(N6CCc7cc(S(=O)(=O)O)ccc76)ccc45)CC3)NC(=O)[C@H](Cc3ccccc3)NC(=O)OCc3ccccc3)c3ccc(S(=O)(=O)O)cc3C2(C)C)C(C)(C)c2cc(S(=O)(=O)O)ccc21 [2QC]	0.9 ± 0.1 µM	0.008 s⁻¹	6.5 ± 1.5 µM	0.095 s⁻¹			observed	higher and brighter	
CC[N+]1=C(C=CC=CC=C2N(CCCCCC(=O)NCCCC[C@H](NC(=O)[C@H](Cc3ccccc3)NC(=O)OCc3ccccc3)C(=O)NCCNC(=O)C3CCN(S(=O)(=O)c4ccccc4-c4c5ccc(=[N+]6CCc7cc(S(=O)(=O)O)ccc76)cc-5oc5cc(N6CCc7cc(S(=O)(=O)O)ccc76)ccc45)CC3)c3ccc(S(=O)(=O)O)cc3C2(C)C)C(C)(C)c2cc(S(=O)(=O)O)ccc21 [2CQ]	5 ± 0.4 µM	0.014 s⁻¹	6.4 ± 0.8 µM	0.141 s⁻¹					
CCN(CC)c1ccc2c(C(C)(C)C)cc(C=CC=CC=C3N(CCCCCC(=O)NCCCCCCNC(=O)[C@H](CCCCNC(=O)CCCCCN4C(=CC=C5CCCC(C=CC6=[N+](CCCS(=O)(=O)O)c7ccc(N(CCCS(=O)(=O)O)CCCS(=O)(=O)O)cc7C6(C)C)=C5Cl)C(C)(C)c5c4ccc4cc(S(=O)(=O)O)ccc54)NC(=O)[C@H](Cc4ccccc4)NC(=O)OCc4ccccc4)c4ccc(S(=O)(=O)O)cc4C3(C)C)[o+]c2c1 [6QCNIR]									slower clearance rate and brighter signal

The next lines start with results.

Km (recombinant cathepsin V)	kcat (recombinant cathepsin V)	Km (recombinant cathepsin L)	kcat (recombinant cathepsin L)	increase in efficiency, spacer n=6 relative to n=2 analog (recombinant cathepsin V)	increase in catalytic efficiency, spacer n=6 relative to n=2 analog (recombinant cathepsin L)	SMILES	Cy5 fluorescence in frozen tumor sections [1]	overall absolute fluorescence intensity in the tumors compared to non-lysosomotropic substrates 2CQ and 6CQ [1]	clearance rate and signal in tumors relative to the non-LLE substrate [2]
3.4 ± 0.3 µM	0.073 s⁻¹	4.6 ± 0.7 µM	0.283 s⁻¹			CC[N+]1=C(C=CC=CC=C2N(CCCCCC(=O)NCCCC[C@H](NC(=O)[C@H](Cc3ccccc3)NC(=O)OCc3ccccc3)C(=O)NCCCCNC(=O)C3CCN(S(=O)(=O)c4ccccc4-c4c5ccc(=[N+]6CCc7cc(S(=O)(=O)O)ccc76)cc-5oc5cc(N6CCc7cc(S(=O)(=O)O)ccc76)ccc45)CC3)c3ccc(S(=O)(=O)O)cc3C2(C)C)C(C)(C)c2cc(S(=O)(=O)O)ccc21 [4CQ]			
4.4 ± 0.2 µM	0.150 s⁻¹	5.3 ± 0.8 µM	0.458 s⁻¹	4 fold	6 fold	CC[N+]1=C(C=CC=CC=C2N(CCCCCC(=O)NCCCCCCNC(=O)[C@H](CCCCNC(=O)C3CCN(S(=O)(=O)c4ccccc4-c4c5ccc(=[N+]6CCc7cc(S(=O)(=O)O)ccc76)cc-5oc5cc(N6CCc7cc(S(=O)(=O)O)ccc76)ccc45)CC3)NC(=O)[C@H](Cc3ccccc3)NC(=O)OCc3ccccc3)c3ccc(S(=O)(=O)O)cc3C2(C)C)C(C)(C)c2cc(S(=O)(=O)O)ccc21 [6QC]	observed	higher and brighter	
4.8 ± 0.2 µM	0.188 s⁻¹	8.6 ± 1.3 µM	0.396 s⁻¹			CC[N+]1=C(C=CC=CC=C2N(CCCCCC(=O)NCCCCNC(=O)[C@H](CCCCNC(=O)C3CCN(S(=O)(=O)c4ccccc4-c4c5ccc(=[N+]6CCc7cc(S(=O)(=O)O)ccc76)cc-5oc5cc(N6CCc7cc(S(=O)(=O)O)ccc76)ccc45)CC3)NC(=O)[C@H](Cc3ccccc3)NC(=O)OCc3ccccc3)c3ccc(S(=O)(=O)O)cc3C2(C)C)C(C)(C)c2cc(S(=O)(=O)O)ccc21 [4QC]			
6.8 ± 0.4 µM	0.164 s⁻¹	5.4 ± 0.5 µM	0.487 s⁻¹	8 fold	4 fold	CC[N+]1=C(C=CC=CC=C2N(CCCCCC(=O)NCCCC[C@H](NC(=O)[C@H](Cc3ccccc3)NC(=O)OCc3ccccc3)C(=O)NCCCCCCNC(=O)C3CCN(S(=O)(=O)c4ccccc4-c4c5ccc(=[N+]6CCc7cc(S(=O)(=O)O)ccc76)cc-5oc5cc(N6CCc7cc(S(=O)(=O)O)ccc76)ccc45)CC3)c3ccc(S(=O)(=O)O)cc3C2(C)C)C(C)(C)c2cc(S(=O)(=O)O)ccc21 [6CQ]			
